Drawing on US20100256105A1, “NOVEL COMPOUNDS” (AstraZeneca R&D, priority 2009, published 2010), this text covers IC50 for 13 molecules.

The target of the experiment is T1, recombinant human GR (Homo sapiens, UniProt P04150).
T1 construct: purchased Panvera/Invitrogen P2812 (kit P2893)
T1 sequence (P04150 1-777): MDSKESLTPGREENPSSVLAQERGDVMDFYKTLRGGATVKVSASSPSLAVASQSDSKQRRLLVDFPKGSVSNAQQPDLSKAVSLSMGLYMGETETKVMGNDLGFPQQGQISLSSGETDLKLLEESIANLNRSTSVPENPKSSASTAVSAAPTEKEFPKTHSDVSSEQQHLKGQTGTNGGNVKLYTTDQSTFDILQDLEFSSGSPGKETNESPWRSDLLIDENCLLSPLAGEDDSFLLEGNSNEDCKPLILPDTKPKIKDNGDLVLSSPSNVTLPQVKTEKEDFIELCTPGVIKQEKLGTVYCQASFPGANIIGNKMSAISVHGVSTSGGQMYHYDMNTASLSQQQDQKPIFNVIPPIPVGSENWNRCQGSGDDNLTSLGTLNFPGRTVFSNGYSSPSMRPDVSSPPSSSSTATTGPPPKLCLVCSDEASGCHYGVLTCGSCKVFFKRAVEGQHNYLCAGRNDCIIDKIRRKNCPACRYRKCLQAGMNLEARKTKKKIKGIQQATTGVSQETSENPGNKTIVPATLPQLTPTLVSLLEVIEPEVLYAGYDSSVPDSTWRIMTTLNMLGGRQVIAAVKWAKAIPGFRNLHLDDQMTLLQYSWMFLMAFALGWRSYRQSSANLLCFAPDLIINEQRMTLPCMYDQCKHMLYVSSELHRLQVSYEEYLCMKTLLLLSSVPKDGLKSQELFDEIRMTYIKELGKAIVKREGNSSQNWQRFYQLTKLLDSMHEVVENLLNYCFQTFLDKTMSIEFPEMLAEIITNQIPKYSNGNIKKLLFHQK
Nature of the experiment: Human Glucocorticoid Receptor (GR) Assay, fluorescence polarization. The settings on record: GS Red tracer, 2 hours at room temperature, 100% control 10 μM Dexamethasone, read-out: Inhibition of GR binding, IC50. As to the method: Human Glucocorticoid Receptor (GR) Assay The assay is based on a commercial kit from Panvera/Invitrogen (Part number P2893). The assay technology is fluorescence polarization. The kit utilises recombinant human GR (Panvera, Part number P2812), a Fluoromone™ labelled tracer (GS Red, Panvera, Part number P2894) and a Stabilizing Peptide 10× (Panvera, Part number P2815). The GR and Stabilizing Peptide reagents are stored at −70° C. while the GS Red is stored at −20° C. Also included in the kit are 1M DTT (Panvera, Part number P2325, stored at −20° C.) and GR Screening buffer 10× (Panvera, Part number P2814, stored at −70° C. initially but once thawed stored at room temperature). Avoid repeated freeze/thaws for all reagents. The GR Screening buffer 10× comprises 100 mM potassium phosphate, 200 mM sodium molybdate, 1 mM EDTA and 20% DMSO. Test compounds (1 μL) and controls (1 μL) in 100% DMSO were added to black polystyrene 384-well plates (Greiner low volume black flat-bottom, part number 784076). 0% control was 100% DMSO and 100% control was 10 μM Dexamethasone. Background solution (8 μL; assay buffer 10×, Stabilizing Peptide, DTT and ice cold MQ water) was added to the background wells. GS Red solution (7 μL; assay buffer 10×, Stabilizing Peptide, DTT, GS Red and ice cold water) was added to all wells except background wells. GR solution (7 μL; assay buffer 10×, Stabilizing Peptide, DTT, GR and ice cold water) was added to all wells. The plate was sealed and incubated in a dark at room temperature for 2 hours. The plate was read in an Analyst plate reader (LJL Biosystems/Molecular Devices Corporation) or other similar plate reader capable of recording fluorescence polarization (excitation wavelength 530 nm, emission wavelength 590 nm and a dichroic mirror at 561 nm).
On the technique in general: Polarisation of emitted light reports the rotation of a fluorescent probe.

In general, IC50 refers to the concentration that gives 50% inhibition.

On to `C[C@]12Cc3cnn(-c4ccc(F)nc4)c3C=C1C=C[C@@H]1[C@@H]2[C@@H](O)C[C@@]2(C)[C@H]1CC[C@]2(OC(=O)C1CC1)C(=O)SCC#N` [Example 9, (1R,3aS,3bS,10aR,10bS,11S,12aS)-1-{[(cyanomethyl)sulfanyl]carbonyl}-7-(6-fluoropyridin-3-yl)-11-hydroxy-10a,12a-dimethyl-1,2,3,3a,3b,7,- 10,10a,10b,11,12,12a-dodecahydro-cyclopenta[5,6]naphtho[1,2-f]indazol-1-yl cyclopropanecarboxylate], for which the IC50 worked out at 1 nM.
The figure for `CC1=C[C@@H]2[C@H]([C@@H](O)C[C@@]3(C)[C@H]2CC[C@]3(OC(=O)C2CC2)C(=O)SCC#N)[C@@]2(C)Cc3cnn(-c4ccc(F)nc4)c3C=C12` [Example 13, (1R,3aS,3bS,10aR,10bS,11S,12aS)-1-{[cyanomethyl)sulfanyl]carbonyl}-7-(6-fluoropyridin-3-yl)-11-hydroxy-5,10a,12a-trimethyl-1,2,3,3a,3b,7,10,10a,10b,11,12,12a-dodecahydrocyclopenta[5,6]naphtho [1,2-f]indazol-1-yl cyclopropanecarboxylate] is 1.5 nM; for `CCC(=O)O[C@]1(C(=O)SCC#N)[C@H](C)C[C@H]2[C@@H]3C=C(C)C4=Cc5c(cnn5-c5ccccc5)C[C@]4(C)[C@H]3[C@@H](O)C[C@@]21C` [Example 17, (1R,2R,3aS,3bS,10aR,10bS,11S,12aS)-1-{[(cyanomethyl)sulfanyl]carbonyl}-11-hydroxy-2,5,10a,12a-tetramethyl-7-phenyl-1,2,3,3a,3b,7,10,10a,- 10b,11,12,12a-dodecahydro-cyclopenta[5,6]naphtho[1,2-f]indazol-1-yl propanoate] it is 4.8 nM; for `CCC(=O)O[C@]1(C(=O)SCF)CC[C@H]2[C@@H]3C=CC4=Cc5c(cnn5-c5ccc(F)nc5)C[C@]4(C)[C@H]3[C@@H](O)C[C@@]21C` [Example 3, (1R,3aS,3bS,10aR,10bS,11S,12aS)-1-{[(Fluoromethyl)sulfanyl]carbonyl}-7-(6-fluoropyridin-3-yl)-11-hydroxy-10a,12a-dimethyl-1,2,3,3a,3b,7,10,10a,10b,11,12,12a-dodecahydrocyclopenta[5,6]naphtho[1,2-f]indazol-1-ylpropanoate] it is 1.4 nM.
In the case of `COCC(=O)O[C@]1(C(=O)SCC#N)CC[C@H]2[C@@H]3C=C(C)C4=Cc5c(cnn5-c5ccc(F)nc5)C[C@]4(C)[C@H]3[C@@H](O)C[C@@]21C` [Example 1, (1R,3aS,3bS,10aR,10bS,11S,12aS)-1-{[(Cyanomethyl)sulfanyl]carbonyl}-7-(6-fluoropyridin-3-yl)-11-hydroxy-5,10a,12a-trimethyl-1,2,3,3a,3b,7,10,10a,10b,-11,12,12a-dodecahydrocyclopenta[5,6]naphtho[1,2-f]indazol-1-yl methoxyacetate], the 50% inhibitory concentration (IC50) is 2.3 nM.
As for `CC1=C[C@@H]2[C@H]([C@@H](O)C[C@@]3(C)[C@H]2CC[C@]3(OC(=O)C2CC2)C(=O)SCF)[C@@]2(C)Cc3cnn(-c4ccc(F)nc4)c3C=C12` [Example 12, (1R,3aS,3bS,10aR,10bS,11S,12aS)-1-{[(fluoromethyl)sulfanyl]carbonyl}-7-(6-fluoropyridin-3-yl)-11-hydroxy-5,10a,12a-trimethyl-1,2,3,3a,3b,7,- 10,10a,10b,11,12,12a-dodecahydro-cyclopenta[5,6]naphtho[1,2-f]indazol-1-yl cyclopropanecarboxylate], the IC50 turned out to be 1.6 nM.
Then `C[C@]12Cc3cnn(-c4ccc(F)nc4)c3C=C1C=C[C@@H]1[C@@H]2[C@@H](O)C[C@@]2(C)[C@H]1CC[C@]2(OC(=O)c1cocn1)C(=O)SCC#N` [Example 6, (1R,3aS,3bS,10aR,10bS,11S,12aS)-1-{[cyanomethyl)sulfanyl]carbonyl}-7-(6-fluoropyridin-3-yl)-11-hydroxy-10a,12a-dimethyl-1,2,3,3a,3b,7,10,10a,10b,11,12,12a-dodecahydrocyclopenta[5,6]naphtho [1,2-f]indazol-1-yl 1,3-oxazole-4-carboxylate], with 1.8 nM.
Then `CCC(=O)O[C@]1(C(=O)SCF)CC[C@H]2[C@@H]3C=C(C)C4=Cc5c(cnn5-c5ccc(F)nc5)C[C@]4(C)[C@H]3[C@@H](O)C[C@@]21C` [Example 11, (1R,3aS,3bS,10aR,10bS,11S,12aS)-1-{[(fluoromethyl)sulfanyl]carbonyl}-7-(6-fluoropyridin-3-yl)-11-hydroxy-5,10a,12a-trimethyl-1,2,3,3a,3b,7,10,10a,10b,11,12,12a-dodecahydrocyclopenta[5,6]naphtho [1,2-f]indazol-1-yl propanoate], with 3.6 nM.
Regarding `COCC(=O)O[C@]1(C(=O)SCF)CC[C@H]2[C@@H]3C=C(C)C4=Cc5c(cnn5-c5ccc(F)nc5)C[C@]4(C)[C@H]3[C@@H](O)C[C@@]21C` [Example 16, (1R,3aS,3bS,10aR,11S,12aS)-1-{[(fluoromethyl)sulfanyl]carbonyl}-7-(6-fluoropyridin-3-yl)-11-hydroxy-5,10a,12a-trimethyl-1,2,3,3a,3b,7,10,10a,10b,11,12,12a-dodecahydrocyclopenta[5,6]naphtho [1,2-f]indazol-1-yl methoxyacetate], the IC50 came out at 1.5 nM.
As to `CCC(=O)O[C@]1(C(=O)SCC#N)CC[C@H]2[C@@H]3C=CC4=Cc5c(cnn5-c5ccc(F)nc5)C[C@]4(C)[C@H]3[C@@H](O)C[C@@]21C` [Example 10, (1R,3aS,3bS,10aR,10bS,11S,12aS)-1-{[(cyanomethyl)sulfanyl]carbonyl}-7-(6-fluoropyridin-3-yl)-11-hydroxy-10a,12a-dimethyl-1,2,3,3a,3b,7,10,10a,10b,11,12,12a-dodecahydrocyclopenta[5,6]naphtho [1,2-f]indazol-1-yl propanoate], the concentration for half-maximal inhibition (IC50) was 0.83 nM.
The figure for `COCC(=O)O[C@]1(C(=O)SCF)CC[C@H]2[C@@H]3C=CC4=Cc5c(cnn5-c5ccc(F)nc5)C[C@]4(C)[C@H]3[C@@H](O)C[C@@]21C` [Example 4, (1R,3aS,3bS,10aR,10bS,11S,12aS)-1-{[(Fluoromethyl)sulfanyl]carbonyl}-7-(6-fluoropyridin-3-yl)-11-hydroxy-10a,12a-dimethyl-1,2,3,3a,3b,7,10,10a,10b,11,12,12a-dodecahydrocyclopenta[5,6]naphtho[1,2-f]indazol-1-yl methoxyacetate] is 0.8 nM; for `C[C@]12Cc3cnn(-c4ccc(F)nc4)c3C=C1C=C[C@@H]1[C@@H]2[C@@H](O)C[C@@]2(C)[C@H]1CC[C@]2(OC(=O)c1cocn1)C(=O)SCF` [Example 5, (1R,3aS,3bS,10aR,10bS,11S,12aS)-1-{[(fluoromethyl)sulfanyl]carbonyl}-7-(6-fluoropyridin-3-yl)-11-hydroxy-10a,12a-dimethyl-1,2,3,3a,3b,7,10,10a,10b,11,12,12a-dodecahydrocyclopenta[5,6]naphtho [1,2-f]indazol-1-yl 1,3-oxazole-4-carboxylate] it is 1.5 nM; for `C[C@]12Cc3cnn(-c4ccc(F)nc4)c3C=C1C=C[C@@H]1[C@@H]2[C@@H](O)C[C@@]2(C)[C@H]1CC[C@]2(OC(=O)C1CC1)C(=O)SCF` [Example 8, (1R,3aS,3bS,10aR,10bS,11S,12aS)-1-{[(fluoromethyl)sulfanyl]carbonyl}-7-(6-fluoropyridin-3-yl)-11-hydroxy-10a,12a-dimethyl-1,2,3,3a,3b,7,10,10a,10b,11,12,12a-dodecahydrocyclopenta[5,6]naphtho [1,2-f]indazol-1-yl cyclopropanecarboxylate] it is 1.4 nM.
